Columns and labels:
Assay in all cases: ADP-Glo kinase assay
Assay type in all cases: biochemical
[1] = target: T1, PI4KIIIα-CD (catalytic domain of PI4KIIIα) (Homo sapiens, UniProt P42356)
T1 construct: gene PI4KA; catalytic domain from G873 to the natural C-terminus, N-terminal His6 tag (pFastBac HT-B) kept, Sf9 / baculovirus, Ni-Sepharose; primer adds start ATG GGG (MGMMQCVI...); ends ...NDIPY

[2] = target: T2, PI3Kβ (p110β/p85α) (Homo sapiens, UniProt P42338)
T2 construct: gene PIK3CB; commercial purified p110β/p85α heterodimer (Millipore); with Phosphatidylinositol 3-kinase regulatory subunit alpha
T2 sequence (P42338 whole entry): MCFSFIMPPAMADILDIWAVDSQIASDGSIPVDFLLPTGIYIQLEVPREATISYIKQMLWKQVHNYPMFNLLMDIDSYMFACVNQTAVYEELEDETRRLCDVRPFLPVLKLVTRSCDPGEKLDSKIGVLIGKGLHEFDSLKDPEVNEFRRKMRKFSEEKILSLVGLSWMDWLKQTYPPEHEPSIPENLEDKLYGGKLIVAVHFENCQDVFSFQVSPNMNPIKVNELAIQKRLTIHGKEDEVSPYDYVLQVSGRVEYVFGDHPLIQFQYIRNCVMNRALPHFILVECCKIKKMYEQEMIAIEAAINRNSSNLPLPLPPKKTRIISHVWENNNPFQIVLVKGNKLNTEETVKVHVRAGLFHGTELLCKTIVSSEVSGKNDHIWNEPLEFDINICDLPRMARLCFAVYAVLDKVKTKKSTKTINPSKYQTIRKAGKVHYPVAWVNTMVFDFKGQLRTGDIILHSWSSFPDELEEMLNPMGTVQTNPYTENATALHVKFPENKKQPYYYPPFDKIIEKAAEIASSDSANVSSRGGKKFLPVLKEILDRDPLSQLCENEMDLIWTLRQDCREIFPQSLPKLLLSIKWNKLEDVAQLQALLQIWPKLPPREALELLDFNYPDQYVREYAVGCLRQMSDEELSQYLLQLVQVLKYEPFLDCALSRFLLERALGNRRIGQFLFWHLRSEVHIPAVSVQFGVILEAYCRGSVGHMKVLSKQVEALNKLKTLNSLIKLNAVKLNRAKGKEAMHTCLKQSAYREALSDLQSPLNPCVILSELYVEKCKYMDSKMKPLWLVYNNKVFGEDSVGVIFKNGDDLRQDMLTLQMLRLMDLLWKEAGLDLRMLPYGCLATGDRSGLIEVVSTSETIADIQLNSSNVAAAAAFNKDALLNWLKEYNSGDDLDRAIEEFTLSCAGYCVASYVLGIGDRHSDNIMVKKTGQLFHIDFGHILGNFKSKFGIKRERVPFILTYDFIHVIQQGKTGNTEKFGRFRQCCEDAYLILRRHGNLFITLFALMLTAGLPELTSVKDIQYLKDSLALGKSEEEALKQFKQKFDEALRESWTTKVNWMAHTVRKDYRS
T2 sequence (P27986 2-724 partner): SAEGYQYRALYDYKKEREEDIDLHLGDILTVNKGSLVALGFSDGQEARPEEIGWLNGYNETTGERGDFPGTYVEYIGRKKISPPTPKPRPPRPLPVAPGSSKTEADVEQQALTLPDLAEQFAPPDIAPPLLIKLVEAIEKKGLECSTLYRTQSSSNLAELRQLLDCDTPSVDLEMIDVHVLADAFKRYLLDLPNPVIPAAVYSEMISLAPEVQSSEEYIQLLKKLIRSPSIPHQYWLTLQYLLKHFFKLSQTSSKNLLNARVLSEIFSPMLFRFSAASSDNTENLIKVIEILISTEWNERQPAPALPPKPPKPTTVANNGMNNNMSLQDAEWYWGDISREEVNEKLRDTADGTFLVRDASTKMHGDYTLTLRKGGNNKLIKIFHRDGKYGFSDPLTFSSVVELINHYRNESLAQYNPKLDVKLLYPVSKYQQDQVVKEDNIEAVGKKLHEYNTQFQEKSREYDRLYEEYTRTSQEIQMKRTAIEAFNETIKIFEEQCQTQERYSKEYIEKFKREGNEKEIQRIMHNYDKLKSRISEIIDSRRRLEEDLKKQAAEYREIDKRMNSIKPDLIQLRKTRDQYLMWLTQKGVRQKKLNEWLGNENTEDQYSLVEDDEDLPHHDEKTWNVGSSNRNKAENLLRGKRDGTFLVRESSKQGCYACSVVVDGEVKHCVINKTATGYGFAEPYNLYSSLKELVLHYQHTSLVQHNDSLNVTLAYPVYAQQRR

[3] = target: T3, PI3Kα (p110α/p85α) (Homo sapiens, UniProt P42336)
T3 construct: gene PIK3CA; commercial purified p110α/p85α heterodimer (Millipore); with Phosphatidylinositol 3-kinase regulatory subunit alpha
T3 sequence (P42336 whole entry): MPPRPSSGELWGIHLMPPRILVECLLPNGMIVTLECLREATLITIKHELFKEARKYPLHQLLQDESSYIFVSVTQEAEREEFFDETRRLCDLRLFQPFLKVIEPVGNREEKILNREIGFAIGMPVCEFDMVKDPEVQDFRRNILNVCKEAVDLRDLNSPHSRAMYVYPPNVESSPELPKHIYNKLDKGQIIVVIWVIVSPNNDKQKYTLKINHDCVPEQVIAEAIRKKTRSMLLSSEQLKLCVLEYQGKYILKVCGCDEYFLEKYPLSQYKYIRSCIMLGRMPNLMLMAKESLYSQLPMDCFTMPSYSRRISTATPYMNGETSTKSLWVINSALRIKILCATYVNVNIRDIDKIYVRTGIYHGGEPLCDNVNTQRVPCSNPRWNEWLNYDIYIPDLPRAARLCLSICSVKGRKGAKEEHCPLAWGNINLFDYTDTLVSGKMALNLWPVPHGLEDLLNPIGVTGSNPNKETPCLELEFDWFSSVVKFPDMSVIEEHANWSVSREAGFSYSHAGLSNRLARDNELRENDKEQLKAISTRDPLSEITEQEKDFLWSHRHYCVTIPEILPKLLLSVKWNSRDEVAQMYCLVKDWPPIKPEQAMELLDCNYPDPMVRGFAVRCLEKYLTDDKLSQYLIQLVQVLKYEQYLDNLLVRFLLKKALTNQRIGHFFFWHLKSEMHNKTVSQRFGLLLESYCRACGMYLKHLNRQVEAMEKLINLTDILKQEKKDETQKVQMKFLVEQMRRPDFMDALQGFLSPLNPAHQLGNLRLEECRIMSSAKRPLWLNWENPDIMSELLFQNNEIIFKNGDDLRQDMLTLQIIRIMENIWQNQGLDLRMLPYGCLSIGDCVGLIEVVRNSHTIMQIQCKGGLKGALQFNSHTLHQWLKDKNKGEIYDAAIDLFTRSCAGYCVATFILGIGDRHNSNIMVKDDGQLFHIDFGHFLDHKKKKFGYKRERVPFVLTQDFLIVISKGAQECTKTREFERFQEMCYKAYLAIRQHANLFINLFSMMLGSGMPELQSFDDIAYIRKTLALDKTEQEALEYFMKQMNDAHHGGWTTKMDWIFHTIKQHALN
T3 sequence (P27986 2-724 partner): as the sequence (P27986 2-724 partner) above

T1 sequence (P42356 931-2102): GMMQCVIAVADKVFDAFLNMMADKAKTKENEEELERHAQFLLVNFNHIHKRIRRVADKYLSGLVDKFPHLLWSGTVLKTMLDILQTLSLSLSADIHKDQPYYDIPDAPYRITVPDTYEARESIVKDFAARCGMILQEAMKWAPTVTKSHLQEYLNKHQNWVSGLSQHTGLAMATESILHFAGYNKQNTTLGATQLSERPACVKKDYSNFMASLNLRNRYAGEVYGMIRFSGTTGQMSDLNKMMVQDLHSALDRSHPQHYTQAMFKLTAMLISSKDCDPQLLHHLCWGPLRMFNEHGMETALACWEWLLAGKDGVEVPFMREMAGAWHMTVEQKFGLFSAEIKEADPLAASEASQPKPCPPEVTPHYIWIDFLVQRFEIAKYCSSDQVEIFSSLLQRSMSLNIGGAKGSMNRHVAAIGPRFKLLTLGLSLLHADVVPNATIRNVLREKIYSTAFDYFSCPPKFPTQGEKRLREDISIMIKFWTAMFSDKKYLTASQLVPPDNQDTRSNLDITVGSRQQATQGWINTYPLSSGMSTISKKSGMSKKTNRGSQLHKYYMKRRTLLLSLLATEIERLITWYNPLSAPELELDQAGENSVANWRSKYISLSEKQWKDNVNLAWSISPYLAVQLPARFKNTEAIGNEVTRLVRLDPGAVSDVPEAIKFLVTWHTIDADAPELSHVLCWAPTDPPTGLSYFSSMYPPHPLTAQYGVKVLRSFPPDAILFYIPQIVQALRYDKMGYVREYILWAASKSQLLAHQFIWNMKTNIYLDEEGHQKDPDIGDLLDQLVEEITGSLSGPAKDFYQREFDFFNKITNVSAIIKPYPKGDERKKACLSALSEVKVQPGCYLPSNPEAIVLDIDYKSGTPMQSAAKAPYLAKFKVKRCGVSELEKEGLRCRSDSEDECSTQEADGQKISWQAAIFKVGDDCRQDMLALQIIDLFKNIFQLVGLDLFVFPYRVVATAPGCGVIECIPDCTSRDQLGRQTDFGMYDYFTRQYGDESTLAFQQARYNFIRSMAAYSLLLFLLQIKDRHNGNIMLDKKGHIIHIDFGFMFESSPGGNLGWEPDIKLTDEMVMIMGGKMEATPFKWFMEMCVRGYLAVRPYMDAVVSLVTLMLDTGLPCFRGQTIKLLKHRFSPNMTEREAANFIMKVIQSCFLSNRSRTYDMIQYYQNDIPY

OCc1ccc(-c2ccc3ncnc(Nc4ccc(N5CCOCC5)cc4)c3c2)o1 [AL-9]
IC50 [1]: 570 nM
inhibition at 10 µM [2]: 40%
IC50 [3]: 1100 nM

Source: publication PMC3297592, “Metabolism of Phosphatidylinositol 4-Kinase IIIα-Dependent PI4P Is Subverted by HCV and Is Targeted by a 4-Anilino Quinazoline with Antiviral Activity” (PLoS Pathogens, 2012)
